Results as given in patent US10717737B2, “Cyclopropylamines as LSD1 inhibitors” (Incyte Corporation, priority 2014, dated 2020).

Target: LSD1 (Homo sapiens (Human), UniProt O60341)
Test: biochemical
Description: LANCE LSD1/KDM1A demethylase assay—10 μL of 1 nM LSD-1 enzyme (ENZO BML-SE544-0050) in the assay buffer (50 mM Tris, pH 7.5, 0.01% Tween-20, 25 mM NaCl, 5 mM DTT) were preincubated for 1 hour at 25° C. with 0.8 μL compound/DMSO dotted in black 384 well polystyrene plates. […] After stopping the reactions plates were incubated for 30 minutes and read on a PHERAstar FS plate reader (BMG Labtech).

| IC50 [nM] | Structure (SMILES) |
| --- | --- |
| < 100 | N#Cc1ccc(CC2(CN[C@@H]3C[C@H]3c3ccccc3)CCN(CC3(C(=O)O)CC3)CC2)c(F)c1 [Example 74, 1-{[4-(4-cyano-2-fluorobenzyl)-4-({[(1R,2S)-2-phenylcyclopropyl]amino}methyl)piperidin-1-yl]methyl}cyclopropanecarboxylic Acid] |
| < 100 | COCC1(CN[C@@H]2C[C@H]2c2ccccc2)CCN(C(=O)N2CCC(O)CC2)CC1 [Example 112, 1-{[4-(methoxymethyl)-4-({[(1R,2S)-2-phenylcyclopropyl]amino}methyl)piperidin-1-yl]carbonyl}piperidin-4-ol] |
